“And” between values parts separate entries of the source, which are not always exact repeats. Identical values can stand only once.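 Exposure lasted 48 hours, with cells grown in 96-well plates and compounds tested at five concentrations. The concentration for 50% growth inhibition is given as GI50. TGI: total growth inhibition.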
Experiments:
Test in all cases: inhibition of tumour cell growth, NCI panel, 48 h
KM12 colon = tested on: KM12 colon
K-562 leukemia = tested on: K-562 leukemia
SF-268 CNS = tested on: SF-268 CNS
786-0 renal = tested on: 786-0 renal
COLO 205 colon = tested on: COLO 205 colon
SK-OV-3 ovarian = tested on: SK-OV-3 ovarian
EKVX NSCLC = tested on: EKVX NSCLC
MDA-MB-231 breast = tested on: MDA-MB-231 breast
MALME-3M melanoma = tested on: MALME-3M melanoma
SW-620 colon = tested on: SW-620 colon
HL-60(TB) leukemia = tested on: HL-60(TB) leukemia
UO-31 renal = tested on: UO-31 renal
OVCAR-8 ovarian = tested on: OVCAR-8 ovarian
M14 melanoma = tested on: M14 melanoma
MDA-N = tested on: MDA-N
HCT-116 colon = tested on: HCT-116 colon
CCRF-CEM leukemia = tested on: CCRF-CEM leukemia
UACC-257 melanoma = tested on: UACC-257 melanoma
NCI-H226 lung = tested on: NCI-H226 lung
HOP-92 NSCLC = tested on: HOP-92 NSCLC
DU-145 prostate = tested on: DU-145 prostate
IGROV1 ovarian = tested on: IGROV1 ovarian
HCT-15 colon = tested on: HCT-15 colon
A498 renal = tested on: A498 renal
SK-MEL-28 melanoma = tested on: SK-MEL-28 melanoma
OVCAR-5 ovarian = tested on: OVCAR-5 ovarian
SK-MEL-2 melanoma = tested on: SK-MEL-2 melanoma
SK-MEL-5 melanoma = tested on: SK-MEL-5 melanoma
HT29 colon = tested on: HT29 colon
NCI-H522 lung = tested on: NCI-H522 lung
A549 NSCLC = tested on: A549 NSCLC
SF-539 CNS = tested on: SF-539 CNS
SF-295 CNS = tested on: SF-295 CNS
SNB-75 CNS = tested on: SNB-75 CNS
TK-10 renal = tested on: TK-10 renal
RXF 393 renal = tested on: RXF 393 renal
MDA-MB-435 = tested on: MDA-MB-435
HCC-2998 colon = tested on: HCC-2998 colon
U251 CNS = tested on: U251 CNS
SNB-19 CNS = tested on: SNB-19 CNS
OVCAR-3 ovarian = tested on: OVCAR-3 ovarian
HS 578T breast = tested on: HS 578T breast
NCI-H23 lung = tested on: NCI-H23 lung
OVCAR-4 ovarian = tested on: OVCAR-4 ovarian
SN12C renal = tested on: SN12C renal
PC-3 prostate = tested on: PC-3 prostate
MOLT-4 leukemia = tested on: MOLT-4 leukemia
NCI/ADR-RES ovarian = tested on: NCI/ADR-RES ovarian
SR leukemia = tested on: SR leukemia
ACHN renal = tested on: ACHN renal
HOP-62 NSCLC = tested on: HOP-62 NSCLC
CAKI-1 renal = tested on: CAKI-1 renal
RPMI-8226 leukemia = tested on: RPMI-8226 leukemia
T-47D breast = tested on: T-47D breast
NCI-H460 lung = tested on: NCI-H460 lung
LOX IMVI melanoma = tested on: LOX IMVI melanoma
MCF7 breast = tested on: MCF7 breast

CC[C@@]1(O)C(=O)OCc2c1cc1n(c2=O)Cc2c-1nc1ccccc1c2C=Nc1ccc(N[C@@H]2c3cc4c(cc3[C@@H](c3cc(OC)c(O)c(OC)c3)[C@H]3C(=O)OC[C@@H]32)OCO4)cc1
GI50 (KM12 colon): 1.69 µM and 0.269 µM
TGI (KM12 colon): > 44.3 µM and 6.24 µM
TGI (K-562 leukemia): 19.3 µM and 10.3 µM
TGI (SF-268 CNS): > 100 µM
TGI (786-0 renal): 0.329 µM
TGI (COLO 205 colon): > 100 µM and 35.8 µM
GI50 (SK-OV-3 ovarian): 0.668 µM and 0.141 µM
TGI (SK-OV-3 ovarian): 9.93 µM
GI50 (EKVX NSCLC): 2.51 µM and 0.665 µM
TGI (EKVX NSCLC): 19.9 µM and 10.9 µM
TGI (MDA-MB-231 breast): 18.4 µM and 4.06 µM
GI50 (MALME-3M melanoma): 0.676 µM and 0.155 µM
TGI (SW-620 colon): 55.7 µM and > 100 µM
TGI (HL-60(TB) leukemia): > 100 µM
TGI (UO-31 renal): 1.52 µM
GI50 (OVCAR-8 ovarian): 0.0264 µM and 0.016 µM
TGI (OVCAR-8 ovarian): 0.263 µM
TGI (M14 melanoma): 0.742 µM and 0.253 µM
GI50 (MDA-N): 0.351 µM and 0.0613 µM
TGI (MDA-N): 27.6 µM and 3.4 µM
GI50 (HCT-116 colon): 0.0251 µM
TGI (HCT-116 colon): 6.45 µM and 0.653 µM
TGI (CCRF-CEM leukemia): > 100 µM
GI50 (UACC-257 melanoma): 0.354 µM
GI50 (NCI-H226 lung): 0.0483 µM and 0.0179 µM
TGI (NCI-H226 lung): 2.71 µM and 0.308 µM
GI50 (HOP-92 NSCLC): 0.0258 µM
TGI (DU-145 prostate): 0.18 µM and 0.028 µM
GI50 (IGROV1 ovarian): 0.274 µM and 0.132 µM
GI50 (HCT-15 colon): 1.08 µM and 0.236 µM
GI50 (A498 renal): 0.21 µM and 0.0448 µM
TGI (A498 renal): 1.72 µM and 0.261 µM
TGI (SK-MEL-28 melanoma): > 100 µM
GI50 (OVCAR-5 ovarian): 0.545 µM and 0.141 µM
GI50 (SK-MEL-2 melanoma): 2.5 µM and 0.535 µM
GI50 (SK-MEL-5 melanoma): 0.0255 µM
TGI (SK-MEL-5 melanoma): 0.309 µM and 0.366 µM
GI50 (HT29 colon): 0.364 µM and 0.104 µM
TGI (HT29 colon): > 100 µM
TGI (NCI-H522 lung): > 100 µM
TGI (A549 NSCLC): 15.6 µM and 1.84 µM
TGI (SF-539 CNS): 0.132 µM
GI50 (SF-295 CNS): 0.0619 µM and 0.0503 µM
TGI (SF-295 CNS): 8.02 µM and 15.9 µM
GI50 (SNB-75 CNS): 0.0498 µM and < 0.0169 µM
GI50 (TK-10 renal): 2.16 µM and 0.815 µM
TGI (TK-10 renal): 28.5 µM and 3.33 µM
GI50 (RXF 393 renal): 0.127 µM and 0.0526 µM
TGI (RXF 393 renal): 2.25 µM and 0.546 µM
GI50 (MDA-MB-435): 0.295 µM and 0.188 µM
TGI (MDA-MB-435): 12.5 µM and > 100 µM
GI50 (HCC-2998 colon): 0.369 µM and 0.131 µM
TGI (U251 CNS): > 48.8 µM
TGI (SNB-19 CNS): > 100 µM
GI50 (OVCAR-3 ovarian): 0.557 µM and 0.185 µM
TGI (OVCAR-3 ovarian): 6.01 µM and 0.74 µM
TGI (HS 578T breast): > 100 µM
TGI (NCI-H23 lung): 0.133 µM
TGI (OVCAR-4 ovarian): > 56 µM
GI50 (SN12C renal): 0.0291 µM and 0.0101 µM
GI50 (PC-3 prostate): 0.822 µM and 0.0864 µM
TGI (PC-3 prostate): > 100 µM
TGI (MOLT-4 leukemia): > 100 µM
GI50 (NCI/ADR-RES ovarian): 0.0449 µM and < 0.01 µM
TGI (SR leukemia): 28.2 µM
TGI (ACHN renal): 0.0374 µM

CC1=NN(c2cccc(Cl)c2)C(=N/c2nc3ccccc3s2)/C1=C\c1ccccc1O
TGI (KM12 colon): > 100 µM
TGI (K-562 leukemia): > 100 µM
TGI (SF-268 CNS): 78.8 µM
TGI (786-0 renal): > 100 µM
TGI (SK-OV-3 ovarian): 81.1 µM
TGI (EKVX NSCLC): > 100 µM
TGI (MDA-MB-231 breast): 64.4 µM
TGI (SW-620 colon): > 100 µM
TGI (HOP-62 NSCLC): > 100 µM
TGI (HL-60(TB) leukemia): 80.6 µM
TGI (UO-31 renal): > 100 µM
TGI (OVCAR-8 ovarian): > 100 µM
TGI (M14 melanoma): > 100 µM
TGI (MDA-N): 93.5 µM
TGI (CAKI-1 renal): > 100 µM
TGI (RPMI-8226 leukemia): > 100 µM
TGI (HCT-116 colon): 68 µM
TGI (CCRF-CEM leukemia): > 100 µM
TGI (UACC-257 melanoma): 62.2 µM
TGI (NCI-H226 lung): 87.8 µM
TGI (HOP-92 NSCLC): 83.5 µM
TGI (DU-145 prostate): > 100 µM
TGI (IGROV1 ovarian): > 100 µM
TGI (HCT-15 colon): 81.1 µM
TGI (A498 renal): 52.4 µM
TGI (T-47D breast): > 100 µM
TGI (SK-MEL-28 melanoma): 76.3 µM
TGI (OVCAR-5 ovarian): > 100 µM
TGI (SK-MEL-2 melanoma): 40.3 µM
TGI (SK-MEL-5 melanoma): 46.2 µM
TGI (NCI-H460 lung): 84.4 µM
TGI (HT29 colon): 97.8 µM
TGI (NCI-H522 lung): 49.4 µM
TGI (SF-539 CNS): > 100 µM
TGI (LOX IMVI melanoma): 57.6 µM
TGI (SF-295 CNS): 86.2 µM
TGI (SNB-75 CNS): > 100 µM
TGI (TK-10 renal): > 100 µM
TGI (RXF 393 renal): > 100 µM
TGI (MDA-MB-435): > 100 µM
TGI (HCC-2998 colon): 45.4 µM
TGI (MCF7 breast): > 100 µM
TGI (U251 CNS): 61 µM
TGI (OVCAR-3 ovarian): 60.4 µM
TGI (HS 578T breast): 56.5 µM
TGI (NCI-H23 lung): 70.1 µM
TGI (OVCAR-4 ovarian): > 100 µM
TGI (PC-3 prostate): 48.7 µM
TGI (MOLT-4 leukemia): 87.4 µM
TGI (NCI/ADR-RES ovarian): 63.7 µM
TGI (SR leukemia): 77.3 µM
TGI (ACHN renal): 74.3 µM

— PubChem BioAssay (NCI)
